Four molecules from ChEMBL document CHEMBL4813929, “Isolation, Structure Determination, and Total Synthesis of Hoshinoamide C, an Antiparasitic Lipopeptide from the Marine Cyanobacterium Caldora penicillata” (J Nat Prod, 2021) can be followed below.

For one series, the system named is Plasmodium falciparum. The series is described as follows: Antiplasmodial activity against asexual Plasmodium falciparum 3D7 infected in human erythrocytes assessed as reduction in parasitemia measured after 72 hrs by LDH assay. In kind it is functional, organism-based. As to conditions: 3D7, Erythrocyte.
Series [1] concerns Trypanosoma brucei rhodesiense. Kind of series: Antitrypanosomal activity against Trypanosoma brucei rhodesiense IL-1501 assessed as parasite growth inhibition incubated for 69 hrs by AlamarBlue assay. Type of series: functional, organism-based. The settings on record: IL-1501, 69 h.
For a further series, the system named is HL-60. Kind of series: Cytotoxicity against human HL-60 cells assessed as cell growth inhibition at 10 uM measured after 72 hrs by MTT assay. Type of series: cell-based. The settings on record: hl-60, 72 h.
In another series the test system is HeLa. The series is described as follows: Cytotoxicity against human HeLa cells assessed as cell growth inhibition at 10 uM measured after 72 hrs by MTT assay. In kind it is cell-based. In general terms: Tetrazolium assays rely on reduction of a dye to a coloured formazan, in cell work by metabolically active cells.

In the case of `CC[C@H](C)[C@H](C(=O)N[C@@H](CCC(N)=O)C(=O)N[C@H](C(=O)N(C)[C@H](Cc1ccccc1)C(=O)N1CCC[C@H]1C(=O)OC)C(C)C)N(C)C(=O)[C@H](CC(C)C)NC(=O)CC[C@@H](C)CCCCNC(=O)CCCc1ccc(O)cc1`, the IC50 (usually the concentration that gives 50% inhibition) with Plasmodium falciparum came out at 870 nM; in series [1], 4400 nM. Moreover, the Activity entry in the series on HL-60 and in the series on HeLa was “Non-Toxic” each time.
Consider `CC[C@H](C)[C@H](C(=O)N[C@@H](CCC(N)=O)C(=O)N[C@H](C(=O)N(C)[C@H](Cc1ccccc1)C(=O)N1CCC[C@H]1C(=O)OC)C(C)C)N(C)C(=O)[C@H](CC(C)C)NC(=O)CC[C@H](C)CCCCNC(=O)CCCc1ccc(O)cc1`, for which the values for the IC50 (in the series on Plasmodium falciparum; in series [1]) were 960 nM and 2900 nM, respectively. In addition, the Activity entry with HL-60 and in the series with HeLa was “Non-Toxic” in each case.
With `O=C1C(O)=C([C@H]2CC[C@H](c3ccc(Cl)cc3)CC2)C(=O)c2ccccc21` [ATOVAQUONE], the half-maximal inhibitory concentration (IC50) in the series with Plasmodium falciparum is 0.96 nM.
For `N=C(N)c1ccc(OCCCCCOc2ccc(C(=N)N)cc2)cc1` [PENTAMIDINE], the half-inhibitory concentration (IC50) in series [1] is 1 nM.
